Among the data in ChEMBL document CHEMBL5050859, “Gpx4 inhibitors, pharmaceutical compositions thereof, and their use for treating gpx4-mediated diseases” (2021) are EC50 values, retold here.

Type in all cases: functional, cell-based
Common to all, as to settings: Huh-7, 24 h

Experiment [1] relates to Huh-7. The experiment can be described thus: Antiproliferative activity against human Huh-7 cells after 24 hrs by Cell Titer Glo assay.
Experiment [2] concerns Huh-7. Description: Antiproliferative activity against human Huh-7 cells in presence of 1 uM liproxstatin-1 measured after 24 hrs by Cell Titer Glo assay.
The test system of experiment [3] is Huh-7. Description: Antiproliferative activity against human Huh-7 cells in presence of 1 uM ferrostatin-1 measured after 24 hrs by Cell Titer Glo assay.

For the compound `C#CC(=O)N(c1cccc(F)c1)C(C(=O)NCc1ccccc1)c1cccc(N)c1` (stereo not drawn), in the experiment with Huh-7 [1], the EC50 amounted to 0.1 µM.
Same read-out and setting: as for `C#CC(=O)N(c1ccc(O)cc1)C(C(=O)NCc1ccccc1)c1cccc(N)c1` (stereo not drawn), the figure is 2 µM; as for `C#CC(=O)N(c1ccc(CO)cc1)C(C(=O)NC(C)(C)C)c1ccc(N)cc1` (stereo not drawn), 2 µM.
Take `C#CC(=O)N(c1cccc(S(C)(=O)=O)c1)C(C(=O)NC(C)(C)C)c1ccc(N)cc1` (stereo not drawn): it took 2 µM to reach a half-maximal effect in the experiment with Huh-7 [1] (EC50).
For `C#CC(=O)N(c1cccc(Cl)c1)[C@]1(C(=O)NCc2ccccc2)CC[C@H](O)CC1`, the midpoint of the response in the experiment with Huh-7 [1], the EC50, lay at 0.1 µM.
On to `C#CC(=O)N(c1cccc(OC)c1)C(C(=O)NCc1ccccc1)c1cccc(N)c1` (stereo not drawn), for which, in the experiment with Huh-7 [1], a half-maximal effect (EC50) was put at 0.1 µM.
Consider `C#CC(=O)N(c1ccc(OC)c(Cl)c1)C(C(=O)NC(C)(C)C)c1ccc(N)cc1` (stereo not drawn), for which the EC50 in the experiment on Huh-7 [1] was at most 0.1 µM.
The compound `C#CC(=O)N(Cc1ccccc1)C(C(=O)NCc1ccccc1)c1cccc(N)c1` (stereo not drawn) had an EC50 in the experiment with Huh-7 [1] of 0.5 µM.
As to `C#CC(=O)N(c1ccc(NS(C)(=O)=O)cc1)C(C(=O)NC(C)(C)C)c1ccc(N)cc1` (stereo not drawn), the EC50 in the experiment on Huh-7 [1] is over 10 µM.
The compound `C#CC(=O)N(c1ccc(NS(C)(=O)=O)cc1)C(C(=O)NC(C)(C)C)c1cccc(N)c1` (stereo not drawn) yielded an EC50 in the experiment with Huh-7 [1] of over 10 µM.
`C#CC(=O)N(c1cccc(NS(C)(=O)=O)c1)C(C(=O)NCc1ccccc1)c1cccc(N)c1` (stereo not drawn) returned an EC50 with Huh-7 [1] of 2 µM.
In turn, `Cn1ncc2cc(N(C(=O)CCBr)C3(C(=O)NCc4ccccc4)CCOCC3)ccc21` showed an EC50 in the experiment on Huh-7 [1] of over 10 µM.
In the experiment with Huh-7 [1], `C#CC(=O)N(c1ccc(C(=O)OC)cc1)C(C(=O)NC(C)(C)C)c1ccc(N)cc1` (stereo not drawn) showed an EC50 of at most 0.1 µM.
In the case of `C#CC(=O)N(c1ccc(O)cc1)C(C(=O)NC(C)(C)C)c1ccc(N)cc1` (stereo not drawn), the concentration giving a half-maximal response (EC50) with Huh-7 [1] was over 10 µM.
`C#CC(=O)N(c1cccc(Cl)c1)C(C(=O)NC(C)(C)C)c1cccc(N)c1` (stereo not drawn) yielded an EC50 with Huh-7 [1] of 0.1 µM.
In the experiment on Huh-7 [1], `C#CC(=O)N(c1cccc(Cl)c1)C(C(=O)NC(C)(C)C)c1ccc(N)cc1` (stereo not drawn) came in with an EC50 of 0.1 µM.
As for `C#CC(=O)N(c1cc(Cl)ccc1F)C(C(=O)NCc1ccccc1)c1cccc(N)c1` (stereo not drawn), in the experiment with Huh-7 [1], the EC50 was at most 0.1 µM.
Still for that read-out and setting: as for `C#CC(=O)N(c1cccc(C#N)c1)C(C(=O)NCc1ccccc1)c1cccc(N)c1` (stereo not drawn), the figure is 0.1 µM.
With `C#CC(=O)N(c1ccc(C#N)cc1)C(C(=O)NCc1ccccc1)c1cccc(N)c1` (stereo not drawn), in the experiment on Huh-7 [1], the EC50 was at most 0.1 µM.
For `C#CC(=O)N(c1cccc(Cl)c1F)C(C(=O)NCc1ccccc1)c1cccc(N)c1` (stereo not drawn), in the experiment with Huh-7 [1], the EC50 was at most 0.1 µM.
Still for that read-out and setting: the same measure for `C#CC(=O)N(c1cccc(CO)c1)C(C(=O)NCc1ccccc1)c1cccc(N)c1` (stereo not drawn): 2 µM.
`C#CC(=O)N(c1ccc(S(N)(=O)=O)cc1)C(C(=O)NC(C)(C)C)c1ccc(N)cc1` (stereo not drawn) displayed an EC50 in the experiment on Huh-7 [1] of over 10 µM.
In turn, `C#CC(=O)N(c1ccc(O)cc1)C(C(=O)NC(C)(C)C)c1cccc(N)c1` (stereo not drawn) yielded an EC50 in the experiment on Huh-7 [1] of 2 µM.
`C#CC(=O)N(c1ccc(CO)cc1)C(C(=O)NC(C)(C)C)c1cccc(N)c1` (stereo not drawn) yielded an EC50 in the experiment on Huh-7 [1] of 2 µM.
For the compound `C#CC(=O)N(c1cccc(Cl)c1)C1(C(=O)NCc2ccccc2)CCOCC1`, the EC50 in the experiment on Huh-7 [2] is over 10 µM; in the experiment on Huh-7 [1] it was at most 0.1 µM; in the experiment on Huh-7 [3], over 10 µM.
Consider `C#CC(=O)N(c1ccc(OC)cc1)C(C(=O)NC(C)(C)C)c1ccc(N)cc1` (stereo not drawn), for which the EC50 in the experiment on Huh-7 [1] was 0.5 µM.
`C#CC(=O)N(c1ccc(Cl)cc1)C(C(=O)NC(C)(C)C)c1ccc(N)cc1` (stereo not drawn) returned an EC50 with Huh-7 [1] of 0.1 µM.
`C#CC(=O)N(c1ccc(N)cc1)C(C(=O)NC(C)(C)C)c1ccc(N)cc1` (stereo not drawn) came in with an EC50 with Huh-7 [1] of 2 µM.
Same read-out and setting: as for `C#CC(=O)N(c1ccc(NC(C)=O)cc1)C(C(=O)NC(C)(C)C)c1cccc(N)c1` (stereo not drawn), the figure is 2 µM.
Consider `N#CCC(=O)N(c1cccc(Cl)c1)C1(C(=O)NCc2ccccc2)CCOCC1`, for which, in the experiment on Huh-7 [1], the EC50 was over 10 µM.
Compound `C#CC(=O)N(c1ccc(OC)cc1)C(C(=O)NC(C)(C)C)c1cccc(N)c1` (stereo not drawn) came in with an EC50 with Huh-7 [1] of 0.5 µM.
`C#CC(=O)N(c1ccc(OC)cc1)C(C(=O)NCc1ccccc1)c1cccc(N)c1` (stereo not drawn): the EC50 with Huh-7 [1] was at most 0.1 µM.
The compound `C#CC(=O)N(c1cccc(NC(C)=O)c1)C(C(=O)NCc1ccccc1)c1cccc(N)c1` (stereo not drawn) returned an EC50 with Huh-7 [1] of 2 µM.
Compound `C#CC(=O)N(c1ccc(OC)c(Cl)c1)C(C(=O)NC(C)(C)C)c1cccc(N)c1` (stereo not drawn) gave an EC50 with Huh-7 [1] of 0.1 µM.
Still for that read-out and setting: the same measure for `C#CC(=O)N(c1cccc(Cl)c1)C(C(=O)NCc1ccccc1)c1cccc(N)c1` (stereo not drawn): at most 0.1 µM.
Same read-out and setting: as for `C#CC(=O)N(c1ccc(OC)c(Cl)c1)C(C(=O)NCc1ccccc1)c1cccc(N)c1` (stereo not drawn), the figure is at most 0.1 µM; as for `C#CC(=O)N(c1cccc(S(N)(=O)=O)c1)C(C(=O)NC(C)(C)C)c1ccc(N)cc1` (stereo not drawn), over 10 µM.
In turn, `C#CC(=O)N(c1ccc(N)cc1)C(C(=O)NC(C)(C)C)c1cccc(N)c1` (stereo not drawn) gave an EC50 in the experiment on Huh-7 [1] of 2 µM.
Consider `C#CC(=O)N(c1cccc(OC)c1)C(C(=O)NC(C)(C)C)c1ccc(N)cc1` (stereo not drawn), for which it took 0.1 µM to reach a half-maximal effect in the experiment on Huh-7 [1] (EC50).
In turn, `C#CC(=O)N(c1ccc(NC(C)=O)cc1)C(C(=O)NC(C)(C)C)c1ccc(N)cc1` (stereo not drawn) returned an EC50 in the experiment with Huh-7 [1] of 2 µM.
`C#CC(=O)N(c1ccc(C(=O)OC)cc1)C(C(=O)NCc1ccccc1)c1cccc(N)c1` (stereo not drawn) yielded an EC50 with Huh-7 [1] of at most 0.1 µM.
As for `Cn1ncc2cc(N(C(=O)CCCl)C3(C(=O)NCc4ccccc4)CCOCC3)ccc21`, the EC50 with Huh-7 [1] was over 10 µM.
`C#CC(=O)N(c1ccc(S(C)(=O)=O)cc1)C(C(=O)NC(C)(C)C)c1ccc(N)cc1` (stereo not drawn) showed an EC50 with Huh-7 [1] of 2 µM.
Take `C#CC(=O)N(c1cccc(C(N)=O)c1)C(C(=O)NCc1ccccc1)c1cccc(N)c1` (stereo not drawn): the EC50 with Huh-7 [1] was over 10 µM.
For the compound `C#CC(=O)N(c1cccc(Cl)c1)C(C(=O)NCc1ccccc1)c1ccc(N)cc1` (stereo not drawn), the EC50 with Huh-7 [1] is at most 0.1 µM.
In the experiment on Huh-7 [1], `C#CC(=O)N(c1cccc(O)c1)C(C(=O)NCc1ccccc1)c1cccc(N)c1` (stereo not drawn) gave an EC50 of at most 0.1 µM.
